Reference: patent publication US10669283B2, “Compound and pharmacologically acceptable salt thereof” (MEIJI SEIKA PHARMA CO., LTD., priority 2016, dated 2020)

System: PDE4
Assay: PDE4 inhibition, scintillation proximity assay (SPA);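 on PDE4 Inhibitory Activity (concentration for the inhibition rate of 50%): A below 100 nM B 100 to below 1000 nM C 1000 nM or more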
Format: biochemical
Conditions: scintillation proximity assay (SPA); evaluated as classes A, B, C; read-out: PDE4 Inhibitory Activity (concentration for the inhibition rate of 50%)
Method in brief: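 Compound pre-diluted 1:10 in 50 mM Tris-HCl pH 7.4, 8.3 mM MgCl2, 1.7 mM EGTA, 3 mg/mL BSA, then incubated with PDE4 and [2,8-3H]-cAMP for 120 min at room temperature. Product captured on ZnSO4-containing YSi-SPA beads for 15 min; radioactivity counted against no-enzyme blank and DMSO control.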

`FC(F)(F)Oc1c(Cl)cc(-c2ncco2)c2oc(N3CC4CCC(C3)N4)nc12` [Example 9, 2-(3,8-Diazabicyclo[3.2.1]octan-3-yl)-5-chloro-7-(oxazol-2-yl)-4-(trifluoromethoxy)benzo[d]oxazole] and `FC(F)(F)Oc1c(Cl)cc(-c2ccco2)c2oc(N3CC4CCC(C3)N4)nc12` [Example 6, 2-(3,8-Diazabicyclo[3.2.1]octan-3-yl)-5-chloro-7-(furan-2-yl)-4-(trifluoromethoxy)benzo[d]oxazole] cannot be ordered by IC50: < 100 nM for the first, < 100 nM for the second.

`OC(c1cc(-c2nccs2)c2oc(N3CC4CC(C3)N4)nc2c1OC(F)(F)F)C(F)F` (centres unmarked) [Example 207, 1-(2-(3,6-Diazabicyclo[3.1.1]heptan-3-yl)-7-(thiazol-2-yl)-4-(trifluoromethoxy)benzo[d]oxazol-5-yl)-2,2-difluoroethan-1-ol] and `CC(C)C(O)c1cc(-c2nccs2)c2oc(N3CC4CCC(C3)N4)nc2c1OC(F)(F)F` (centres unmarked) [Example 205, 1-(2-(3,8-Diazabicyclo[3.2.1]octan-3-yl)-7-(thiazol-2-yl)-4-(trifluoromethoxy)benzo[d]oxazol-5-yl)-2-methylpropan-1-ol] cannot be ordered by IC50: < 100 nM for the first, < 100 nM for the second.

`CC(C)(O)c1cc(-c2cscn2)c2oc(N3CC4CC(C3)N4)nc2c1OC(F)(F)F` [Example 288, 2-(2-(3,6-Diazabicyclo[3.1.1]heptan-3-yl)-7-(thiazol-4-yl)-4-(trifluoromethoxy)benzo[d]oxazol-5-yl)propan-2-ol] and `COC(C)(C)c1cc(-c2nccs2)c2oc(N3CC4CCCC(C3)N4)nc2c1OC(F)(F)F` [Example 200, 2-(3,9-Diazabicyclo[3.3.1]nonan-3-yl)-5-(2-methoxypropan-2-yl)-7-(thiazol-2-yl)-4-(trifluoromethoxy)benzo[d]oxazole] cannot be ordered by IC50: < 100 nM for the first, < 100 nM for the second.

`N#CCOC(c1cc(-c2nccs2)c2oc(N3CC4CCC(C3)N4)nc2c1)C(F)(F)F` (centres unmarked) [Example 153, 2-(1-(2-(3,8-Diazabicyclo[3.2.1]octan-3-yl)-7-(thiazol-2-yl)benzo[d]oxazol-5-yl)-2,2,2-trifluoroethoxy)acetonitrile] and `COC(c1cc(-c2nccs2)c2oc(N3CC4CCC(C3)N4)nc2c1)C(F)(F)F` (centres unmarked) [Example 142, 2-(3,8-Diazabicyclo[3.2.1]octan-3-yl)-7-(thiazol-2-yl)-5-(2,2,2-trifluoro-1-methoxyethyl)benzo[d]oxazole] cannot be ordered by IC50: < 100 nM for the first, < 100 nM for the second.

`FC(F)(F)COC(c1ccc(-c2nccs2)c2oc(N3CC4CC(C3)N4)nc12)C(F)(F)F` (centres unmarked) [Example 223, 2-(3,6-Diazabicyclo[3.1.1]heptan-3-yl)-7-(thiazol-2-yl)-4-(2,2,2-trifluoro-1-(2,2,2-trifluoroethoxy)ethyl)benzo[d]oxazole] and `COC(c1ccc(-c2nccs2)c2oc(N3CC4CC(C3)N4)nc12)C(F)(F)F` (centres unmarked) [Example 122, 2-(3,6-Diazabicyclo[3.1.1]heptan-3-yl)-7-(thiazol-2-yl)-4-(2,2,2-trifluoro-1-methoxyethyl)benzo[d]oxazole] cannot be ordered by IC50: < 100 nM for the first, < 100 nM for the second.

`CC(C)(O)c1cc(-c2nccs2)c2oc(N3CC4CCC(C3)N4)nc2c1` [Example 172, 2-(2-(3,8-Diazabicyclo[3.2.1]octan-3-yl)-7-(thiazol-2-yl)benzo[d]oxazol-5-yl)propan-2-ol] and `CC(C)c1cc(-c2nccs2)c2oc(N3CC4CCC(C3)N4)nc2c1` [Example 21, 2-(3,8-Diazabicyclo[3.2.1]octan-3-yl)-5-isopropyl-7-(thiazol-2-yl)benzo[d]oxazole] cannot be ordered by IC50: < 100 nM for the first, < 100 nM for the second.

`CC(O)(c1ccc(-c2nccs2)c2oc(N3CC4CC(C3)N4)nc12)C(F)F` (centres unmarked) [Example 126, 2-(2-(3,6-Diazabicyclo[3.1.1]heptan-3-yl)-7-(thiazol-2-yl)benzo[d]oxazol-4-yl)-1,1-difluoropropan-2-ol] and `CC(C)(O)COc1ccc(-c2nccs2)c2oc(N3CC4CC(C3)N4)nc12` [Example 279, 1-((2-(3,6-Diazabicyclo[3.1.1]heptan-3-yl)-7-(thiazol-2-yl)benzo[d]oxazol-4-yl)oxy)-2-methylpropan-2-ol] cannot be ordered by IC50: < 100 nM for the first, < 100 nM for the second.

`Cc1ccc(-c2nccs2)c2oc(N3CC4CCCC(C3)N4)nc12` [Example 27, 2-(3,9-Diazabicyclo[3.3.1]nonan-3-yl)-4-methyl-7-(thiazol-2-yl)benzo[d]oxazole] and `N#CCOc1ccc(-c2nccs2)c2oc(N3CC4CCC(C3)N4)nc12` [Example 82, 2-((2-(3,8-Diazabicyclo[3.2.1]octan-3-yl)-7-(thiazol-2-yl)benzo[d]oxazol-4-yl)oxy)acetonitrile] cannot be ordered by IC50: < 100 nM for the first, < 100 nM for the second.

`CC(=O)Nc1cc(-c2nccs2)c2oc(N3CC4CCCC(C3)N4)nc2c1` [Example 48, N-(2-(3,9-diazabicyclo[3.3.1]nonan-3-yl)-7-(thiazol-2-yl)benzo[d]oxazol-5-yl)acetamide] and `FC(F)(F)c1cc(-c2nccs2)c2oc(N3CC4CCCC(C3)N4)nc2c1` [Example 53, 2-(3,9-Diazabicyclo[3.3.1]nonan-3-yl)-7-(thiazol-2-yl)-5-(trifluoromethyl)benzo[d]oxazole] cannot be ordered by IC50: < 100 nM for the first, < 100 nM for the second.

`C[C@H](O)COc1ccc(-c2nccs2)c2oc(N3CC4CC(C3)N4)nc12` [Example 260, (2S)-1-((2-(3,6-diazabicyclo[3.1.1]heptan-3-yl)-7-(thiazol-2-yl)benzo[d]oxazol-4-yl)oxy)propan-2-ol] and `CC(O)(c1ccc(-c2nccs2)c2oc(N3CC4CC(C3)N4)nc12)C(F)F` (centres unmarked) [Example 297, 2-(2-(3,6-Diazabicyclo[3.1.1]heptan-3-yl)-7-(thiazol-2-yl)benzo[d]oxazol-4-yl)-1,1-difluoropropan-2-ol] cannot be ordered by IC50: < 100 nM for the first, < 100 nM for the second.

`OC(c1cc(-n2cccn2)c2oc(N3CC4CCC(C3)N4)nc2c1)C(F)(F)F` (centres unmarked) [Example 140, 1-(2-(3,8-Diazabicyclo[3.2.1]octan-3-yl)-7-(1H-pyrazol-1-yl)benzo[d]oxazol-5-yl)-2,2,2-trifluoroethan-1-ol] and `OC(c1cc(-c2nccs2)c2oc(N3CC4CC(C3)N4)nc2c1)C(F)(F)F` (centres unmarked) [Example 135, 1-(2-(3,6-Diazabicyclo[3.1.1]heptan-3-yl)-7-(thiazol-2-yl)benzo[d]oxazol-5-yl)-2,2,2-trifluoroethan-1-ol] cannot be ordered by IC50: < 100 nM for the first, < 100 nM for the second.

First: CC(O)c1cc(-c2nccs2)c2oc(N3CC4CC(C3)N4)nc2c1 (centres unmarked) [Example 107, 1-(2-(3,6-Diazabicyclo[3.1.1]heptan-3-yl)-7-(thiazol-2-yl)benzo[d]oxazol-5-yl)ethan-1-ol]
Second: CCOC(=O)c1cc(-c2nccs2)c2oc(N3CC4CC(C3)N4)nc2c1 [Example 87, Ethyl 2-(3,6-diazabicyclo[3.1.1]heptan-3-yl)-7-(thiazol-2-yl)benzo[d]oxazole-5-carboxylate]
The IC50 of the first is higher: 100 to 1000 nM for the first, < 100 nM for the second. The second is the more potent here.

`CC(O)c1cc(-c2nccs2)c2oc(N3CC4CCC(C3)N4)nc2c1C(F)(F)F` (centres unmarked) [Example 181, 1-(2-(3,8-Diazabicyclo[3.2.1]octan-3-yl)-7-(thiazol-2-yl)-4-(trifluoromethyl)benzo[d]oxazol-5-yl)ethan-1-ol] and `CC(O)c1cc(-c2nccs2)c2oc(N3CC4CC(C3)N4)nc2c1C(F)(F)F` (centres unmarked) [Example 182, 1-(2-(3,6-Diazabicyclo[3.1.1]heptan-3-yl)-7-(thiazol-2-yl)-4-(trifluoromethyl)benzo[d]oxazol-5-yl)ethan-1-ol] cannot be ordered by IC50: < 100 nM for the first, < 100 nM for the second.

`N#CC1CC(Oc2ccc(-c3nccs3)c3oc(N4CC5CC(C4)N5)nc23)C1` (centres unmarked) [Example 266, 3-((2-(3,6-Diazabicyclo[3.1.1]heptan-3-yl)-7-(thiazol-2-yl)benzo[d]oxazol-4-yl)oxy)cyclobutane-1-carbonitrile] and `COCCOC(c1ccc(-c2nccs2)c2oc(N3CC4CC(C3)N4)nc12)C(F)(F)F` (centres unmarked) [Example 229, 2-(3,6-Diazabicyclo[3.1.1]heptan-3-yl)-7-(thiazol-2-yl)-4-(2,2,2-trifluoro-1-(2-methoxyethoxy)ethyl)benzo[d]oxazole] cannot be ordered by IC50: < 100 nM for the first, < 100 nM for the second.

`COC(c1cc(-c2nccs2)c2oc(N3CC4CCC(C3)N4)nc2c1)C(F)(F)F` (centres unmarked) [Example 143, 2-(3,8-Diazabicyclo[3.2.1]octan-3-yl)-7-(thiazol-2-yl)-5-(2,2,2-trifluoro-1-methoxyethyl)benzo[d]oxazole] and `OCC(F)(F)Oc1ccc(-c2cscn2)c2oc(N3CC4CCC(C3)N4)nc12` [Example 312, 2-((2-(3,8-Diazabicyclo[3.2.1]octan-3-yl)-7-(thiazol-4-yl)benzo[d]oxazol-4-yl)oxy)-2,2-difluoroethan-1-ol] cannot be ordered by IC50: < 100 nM for the first, < 100 nM for the second.

For `CC(C)(O)C(F)(F)Oc1ccc(-c2ccccn2)c2oc(N3CC4CC(C3)N4)nc12` [Example 289, 1-((2-(3,6-Diazabicyclo[3.1.1]heptan-3-yl)-7-(pyridin-2-yl)benzo[d]oxazol-4-yl)oxy)-1,1-difluoro-2-methylpropan-2-ol], the IC50 was < 100 nM.

Same assay, conditions: scintillation proximity assay; class symbols; read-out: PDE4 Inhibitory Activity

`CN(CCO)C(=O)C(F)(F)Oc1ccc(-c2nccs2)c2oc(N3CC4CC(C3)N4)nc12` [Example 407, 2-((2-(3,6-diazabicyclo [3.1.1]heptan-3-yl)-7-(thiazol-2-yl)benzo[d]oxazol-4-yl)oxy)-2,2-difluoro-N-(2-hydroxy-ethyl)-N-methyl-acetamide] and `CC(C)(O)C(F)(F)Oc1ccc(-c2nccs2)c2oc(N3CC4CC(C3)N4O)nc12` [Example 371, 3-(4-(1,1-difluoro-2-hydroxy-2-methylpropoxy)-7-(thiazol-2-yl)benzo[d]oxazol-2-yl)-3,6-diazabicyclo [3.1.1]heptan-6-ol] cannot be ordered by IC50: < 100 nM for the first, < 100 nM for the second.

`c1csc(-c2ccc(N3CCCC3)c3nc(N4CC5CC(C4)N5)oc23)n1` [Example 415, 2-(3,6-diazabicyclo[3.1.1]heptan-3-yl)-4-(pyrrolidin-1-yl)-7-(thiazol-2-yl)benzo [d]oxazole] and `OC(c1ccc(-c2nccs2)c2oc(N3CC4CCC(C3)N4O)nc12)C(F)(F)F` (centres unmarked) [Example 379, 3-(7-(thiazol-2-yl)-4-(2,2,2-trifluoro-1-hydroxyethyl)benzo[d]oxazol-2-yl)-3,8-diaza-bicyclo[3.2.1] octan-8-ol] cannot be ordered by IC50: < 100 nM for the first, < 100 nM for the second.
